Here are results for three molecules from patent US4316010A, “Cis-C3 "C4 "-carbonate derivatives of O-demethyloleandomycin and intermediates therefor” (Pfizer Inc., priority 1981, dated 1982).

The test system of one assay is Bac. sub. 1. In words: MIC, serial dilution on BHI agar (inocula replicating device). It is filed as cell-based. To be noted: 18 hrs. at 37° C., read-out: Minimum Inhibitory Concentration (MIC). The procedure:
(§1) The procedure which is followed is the one recommended by the International Collaborative Study on Antibiotic Sensitivity Testing [Ericcson and Sherris, Acta. Pathologica et Microbiologia Scandinav, Supp. 217, Sections A and B: 64-68 (1971)], and employs brain heart infusion (BHI) agar and the inocula replicating device. Overnight growth tubes are diluted 100 fold for use as the standard inoculum (20,000-10,000 cells in approximately 0.002 ml. are placed on the agar surface; 20 ml. of BHI agar/dish). Twelve 2 fold dilutions of the test compound are employed, with initial concentration of the test drug being 200 mcg./ml. Single colonies are disregarded when reading plates after 18 hrs. at 37° C. The susceptibility (MIC) of the test organism is accepted as the lowest concentration of compound capable of producing complete inhibition of growth as judged by the naked eye. A comparison of the activity of 3"-epioleandomycin-Y 3",4"-carbonate and 4"-epioleandomycin-Y 3",4"-carbonate with that of parent oleandomycin-Y is recorded in the Table.

Another assay concerns Staph. aur. 400. The assay is described as above. It is filed as cell-based. As to conditions: 18 hrs. at 37° C., read-out: Minimum Inhibitory Concentration (MIC). The method, then: as §1
In another assay the test system is Staph. aur. 52. The description is as above. It is filed as cell-based. As to conditions: 18 hrs. at 37° C., read-out: Minimum Inhibitory Concentration (MIC). The method, then:
as §1

Another assay has as its system Staph. aur. 5. The description is as above. It is filed as cell-based. To be noted: 18 hrs. at 37° C., read-out: Minimum Inhibitory Concentration (MIC). The method, then: as §1
The subject of another assay is Staph. epi. 111. The assay is described as above. It is filed as cell-based. As to conditions: 18 hrs. at 37° C., read-out: Minimum Inhibitory Concentration (MIC). The method, then:
as §1

For another assay, the system named is Strep. faec. 6. The description is as above. It is filed as cell-based. To be noted: 18 hrs. at 37° C., read-out: Minimum Inhibitory Concentration (MIC). The method, then: as §1
The next assay concerns Strep. pneum. 2. Described as above. It is filed as cell-based. As to conditions: 18 hrs. at 37° C., read-out: Minimum Inhibitory Concentration (MIC). The procedure: as §1
For a further assay, the system named is Strep. pyog. 203. The description is as above. To be noted: 18 hrs. at 37° C., read-out: Minimum Inhibitory Concentration (MIC). It is filed as cell-based. The procedure: as §1
The next assay concerns bacteria. To be noted: background statement on the byproduct; cited from earlier work.
For a further assay, the system named is Past. mult. In words: MIC, serial dilution on BHI agar (inocula replicating device). To be noted: 18 hrs. at 37° C., read-out: Minimum Inhibitory Concentration (MIC). It is filed as cell-based. The procedure:
as §1

≈ marks a conversion by molar mass, not a printed value.

As to `C[C@@H]1[C@@H](O[C@@H]2O[C@H](C)C[C@H](N(C)C)[C@H]2O)[C@@H](C)C[C@@]2(CO2)C(=O)[C@H](C)[C@@H](O)[C@@H](C)[C@@H](C)OC(=O)[C@H](C)[C@H]1O[C@H]1C[C@@H]2OC(=O)O[C@@H]2[C@H](C)O1` [IIb, 4"-epioleandomycin-Y 3",4"-carbonate], the MIC came out at 3.12 µg/mL (≈ 4.46 µM) in the assay on Bac. sub. 1; 12.5 µg/mL (≈ 17.9 µM) with Staph. aur. 400; 12.5 µg/mL (≈ 17.9 µM) in the assay on Staph. aur. 52; 12.5 µg/mL (≈ 17.9 µM) in the assay on Staph. aur. 5; 6.25 µg/mL (≈ 8.93 µM) with Staph. epi. 111; 12.5 µg/mL (≈ 17.9 µM) with Strep. faec. 6. The MIC with Strep. pneum. 2 is 0.78 µg/mL (≈ 1.11 µM); in the assay on Strep. pyog. 203, 3.12 µg/mL (≈ 4.46 µM).
As to `C[C@@H]1[C@@H](O[C@@H]2O[C@H](C)C[C@H](N(C)C)[C@H]2O)[C@@H](C)C[C@@]2(CO2)C(=O)[C@H](C)[C@@H](O)[C@@H](C)[C@@H](C)OC(=O)[C@H](C)[C@H]1O[C@H]1C[C@H](O)[C@@H](O)[C@H](C)O1` [I, O-demethyloleandomycin], the MIC with Bac. sub. 1 turned out to be 6.25 µg/mL (≈ 9.28 µM); with Staph. aur. 400, 12.5 µg/mL (≈ 18.6 µM); with Staph. aur. 52, 50 µg/mL (≈ 74.2 µM); in the assay on Staph. aur. 5, 50 µg/mL (≈ 74.2 µM); with Staph. epi. 111, 6.25 µg/mL (≈ 9.28 µM); with Strep. faec. 6, 6.25 µg/mL (≈ 9.28 µM). For the same molecule, the MIC in the assay with Strep. pneum. 2 is 0.78 µg/mL (≈ 1.16 µM); in the assay on Strep. pyog. 203, 1.56 µg/mL (≈ 2.32 µM). The “antibacterial activity (in words)” value in the assay on bacteria was “relatively low antibacterial activity”.
For the molecule `C[C@@H]1[C@@H](O[C@@H]2O[C@H](C)C[C@H](N(C)C)[C@H]2O)[C@@H](C)C[C@@]2(CO2)C(=O)[C@H](C)[C@@H](O)[C@@H](C)[C@@H](C)OC(=O)[C@H](C)[C@H]1O[C@H]1C[C@H]2OC(=O)O[C@H]2[C@H](C)O1` [IIa, 3"-epioleandomycin-Y 3",4"-carbonate], the MIC turned out to be 0.78 µg/mL (≈ 1.11 µM) with Bac. sub. 1; 50 µg/mL (≈ 71.4 µM) in the assay on Past. mult.; 6.25 µg/mL (≈ 8.93 µM) with Staph. aur. 400; 3.12 µg/mL (≈ 4.46 µM) in the assay with Staph. aur. 52; 3.12 µg/mL (≈ 4.46 µM) in the assay on Staph. aur. 5; 1.56 µg/mL (≈ 2.23 µM) in the assay on Staph. epi. 111. Further, the MIC in the assay on Strep. faec. 6 turned out to be 3.12 µg/mL (≈ 4.46 µM); in the assay with Strep. pneum. 2 it was 0.39 µg/mL (≈ 0.557 µM); in the assay with Strep. pyog. 203, 3.12 µg/mL (≈ 4.46 µM).
